Data: US6740640B2, “Sulfofucosylacylglycerol derivatives and administration thereof as medicaments” (Toyo Suisan Kaisha, Ltd., priority 1999, dated 2004)
Where a name gives a salt, the structure may show the parent alone.

What was measured:
DNA polymerase α = biological target: T1, DNA polymerase α (Bos taurus, UniProt A0AAA9TD94); assay: Inhibitory effect against DNA polymerase α ([3H]-dTTP incorporation); assay type: biochemical; conditions: DNA polymerase α from bovine thymus, 0.05 U, 37° C. for 60 minutes
T1 construct: from tissue; host or cells: bovine thymus
T1 sequence (A0AAA9TD94 1-1441): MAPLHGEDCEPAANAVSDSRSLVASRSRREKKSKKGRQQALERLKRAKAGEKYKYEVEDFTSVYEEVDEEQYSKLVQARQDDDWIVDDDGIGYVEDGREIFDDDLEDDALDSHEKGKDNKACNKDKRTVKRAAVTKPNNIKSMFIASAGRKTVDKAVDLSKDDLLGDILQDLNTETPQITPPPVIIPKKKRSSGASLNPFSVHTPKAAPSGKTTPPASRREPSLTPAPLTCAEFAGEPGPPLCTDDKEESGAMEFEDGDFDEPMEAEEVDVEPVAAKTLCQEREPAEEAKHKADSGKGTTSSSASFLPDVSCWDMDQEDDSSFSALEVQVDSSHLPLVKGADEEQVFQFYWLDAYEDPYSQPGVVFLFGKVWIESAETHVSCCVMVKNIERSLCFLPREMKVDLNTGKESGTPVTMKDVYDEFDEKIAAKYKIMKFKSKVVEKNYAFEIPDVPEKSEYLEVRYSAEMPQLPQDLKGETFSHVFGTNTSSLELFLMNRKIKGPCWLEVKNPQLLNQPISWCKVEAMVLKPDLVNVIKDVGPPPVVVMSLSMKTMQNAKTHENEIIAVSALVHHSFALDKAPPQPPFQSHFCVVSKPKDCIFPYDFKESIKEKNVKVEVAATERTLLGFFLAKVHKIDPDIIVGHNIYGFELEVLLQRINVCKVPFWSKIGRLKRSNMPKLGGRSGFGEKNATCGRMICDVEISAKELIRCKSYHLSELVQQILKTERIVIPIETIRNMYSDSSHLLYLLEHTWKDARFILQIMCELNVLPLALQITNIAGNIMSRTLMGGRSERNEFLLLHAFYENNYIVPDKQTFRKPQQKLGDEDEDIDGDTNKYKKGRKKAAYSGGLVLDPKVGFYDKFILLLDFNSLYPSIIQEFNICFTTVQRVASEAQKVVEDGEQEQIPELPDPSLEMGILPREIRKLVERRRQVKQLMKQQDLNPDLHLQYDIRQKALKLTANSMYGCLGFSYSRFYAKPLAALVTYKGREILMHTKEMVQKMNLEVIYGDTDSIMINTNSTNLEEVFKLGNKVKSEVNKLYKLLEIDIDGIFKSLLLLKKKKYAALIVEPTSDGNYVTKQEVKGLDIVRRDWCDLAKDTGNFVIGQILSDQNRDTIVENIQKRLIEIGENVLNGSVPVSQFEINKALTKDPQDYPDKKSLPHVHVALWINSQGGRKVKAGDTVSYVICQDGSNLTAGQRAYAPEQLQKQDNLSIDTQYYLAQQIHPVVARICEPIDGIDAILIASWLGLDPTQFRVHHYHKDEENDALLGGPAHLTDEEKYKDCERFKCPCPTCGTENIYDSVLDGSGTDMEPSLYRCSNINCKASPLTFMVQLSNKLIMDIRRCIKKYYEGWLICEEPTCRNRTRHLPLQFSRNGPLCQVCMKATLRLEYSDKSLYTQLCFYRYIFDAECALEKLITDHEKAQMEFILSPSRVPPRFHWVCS
Procedure: An assay on inhibitory effect against a DNA polymerase α was carried out in the following manner.
Each mixture was added with a buffer containing inorganic salts for the enzymatic reaction, [^3H]-labeled dTTP and compounds for reaction containing a template DNA strand, and incubated at 37° C. for 60 minutes.
After the enzymatic reaction was quenched, the resultant reaction product was fixed on a dedicated filter and subjected to measurement by a liquid scintillation counter. The amount of enzymatically incorporated dTTP was calculated as a radiation dose (cpm) of [^3H]. Note that, each of the sulfofucosylacylglycerol derivatives is a mixture of the S- and R-configurations with respect to an absolute configuration of the carbon of the 2-position of the glycerol moiety.
The results are shown as IC50 in Table 1 below.

Colon cancer cells DLD-1 = assay: Anticancer activity against cultured colon cancer cells (MTT assay); assay type: cell-based; conditions: Homo sapiens, DLD-1, 48 hour cultivation
Procedure: An assay on anticancer activity against cultured colon cancer cells was carried out in the following manner.
(§1) Colon cancer cells DLD-1 were maintained and subcultured in RPMI 1640 medium (containing 10% calf serum). Each of the test compounds (SFAG1 to SFAG3 shown in Table 1) was suspended and diluted in the medium, and then the cancer cells were cultivated together with the medium in a 96-well plate at 3×10^3 cells/well. After 48 hour cultivation, the MTT assay (Mosmann, T: Journal of Immunological Method, 65, 55-63 (1983)) was carried out to compare survival rates.
The results are shown as IC50 in Table 2 below.

[1] = tested on: gastric cancer cells NUGC-3; assay: Anticancer activity against cultured gastric cancer cells (MTT assay); assay type: cell-based; conditions: Homo sapiens, NUGC-3, 48 hour cultivation
Procedure: as §1
An assay on anticancer activity against cultured gastric cancer cells was carried out in the same manner as in the Assay 2 except that gastric cancer cells NUGC-3 were used instead of the colon cancer cells DLD-1.
The results are shown as IC50 in Table 3 below.

CCCCCCCCCCCCCCCC(=O)OCC(CO[C@H]1O[C@H](CS(=O)(=O)O)[C@H](O)[C@H](O)[C@H]1O)OC(=O)CCCCCCCCCCCCCCC (stereo partly drawn) [SFAG5, 3-O-(6-deoxy-6-sulfo-α-D-galactopyranosyl)-1,2-di-O-palmitoyl-glycerol sodium salt]
IC50 (DNA polymerase α): 0.551 µM

CCCCCCCCCCCCCCCC(=O)OCC(O)CO[C@H]1O[C@H](CS(=O)(=O)[O-])[C@H](O)[C@H](O)[C@H]1O.[Na+] (stereo partly drawn) [SFAG2, 3-O-(6-deoxy-6-sulfo-α-D-galactopyranosyl)-1-O-palmitoyl-glycerol sodium salt]
IC50 (Colon cancer cells DLD-1): 41.5 µg/mL | IC50 [1]: 41.7 µg/mL | IC50 (DNA polymerase α): 8.64 µM

CCCCCCCCCCCCCCCCCC(=O)OCC(CO[C@H]1O[C@H](CS(=O)(=O)O)[C@H](O)[C@H](O)[C@H]1O)OC(=O)CCCCCCCCCCCCCCCCC (stereo partly drawn) [SFAG6, 3-O-(6-deoxy-6-sulfo-α-D-galactopyranosyl)-1,2-di-O-stearoyl-glycerol sodium salt]
IC50 (DNA polymerase α): 0.458 µM

CCCCCCCCCCCCCC(=O)OCC(O)CO[C@H]1O[C@H](CS(=O)(=O)[O-])[C@H](O)[C@H](O)[C@H]1O.[Na+] (stereo partly drawn) [SFAG1, 3-O-(6-deoxy-6-sulfo-α-D-galactopyranosyl)-1-O-myristoyl-glycerol sodium salt]
IC50 (Colon cancer cells DLD-1): 44 µg/mL | IC50 [1]: 44.3 µg/mL | IC50 (DNA polymerase α): 7.63 µM

CCCCCCCCCCCCCCCCCC(=O)OCC(O)CO[C@H]1O[C@H](CS(=O)(=O)[O-])[C@H](O)[C@H](O)[C@H]1O.[Na+] (stereo partly drawn) [SFAG3, 3-O-(6-deoxy-6-sulfo-α-D-galactopyranosyl)-1-O-stearoyl-glycerol sodium salt]
IC50 (Colon cancer cells DLD-1): 27.5 µg/mL | IC50 [1]: 30.3 µg/mL | IC50 (DNA polymerase α): 8.24 µM

CCCCCCCCCCCCCC(=O)OCC(CO[C@H]1O[C@H](CS(=O)(=O)O)[C@H](O)[C@H](O)[C@H]1O)OC(=O)CCCCCCCCCCCCC (stereo partly drawn) [SFAG4, 3-O-(6-deoxy-6-sulfo-α-D-galactopyranosyl)-1,2-di-O-myristoyl-glycerol sodium salt]
IC50 (DNA polymerase α): 0.657 µM
